{"source": "patent US6355226B1", "about": "“Topical treatment of skin disease and eye afflictions” (Advanced Viral Research Corp., priority 1997, dated 2002)", "origin": "cited, not measured here", "key": {"[1]": {"system": "herpes simplex 1 and 2 (HSV 1 and 2)"}, "[2]": {"system": "genital herpes infection", "conditions": "topically administered ointment"}, "[3]": {"system": "cytomegalovirus (CM)"}}}
{"smiles": "Nc1nc2c(ncn2COCCO)c(=O)[nH]1", "note": "[acyclovir]", "values": [{"measurement": "effectiveness against HSV 1 and 2", "setting": "[1]", "value": "specifically effective"}, {"measurement": "effect on recurrent genital herpes disease", "setting": "[2]", "value": "little if any, effect"}, {"measurement": "effectiveness in primary first occurrence of genital herpes infection", "setting": "[2]", "value": "seems to be effective"}, {"measurement": "effectiveness against cytomegalovirus", "setting": "[3]", "value": "not against cytomegalovirus"}]}
